Legend:
[1] = test system: HSV-1 KOS infected Vero cells; test: Efficacy of implants at preventing cytopathic effect in cell culture; assay type: cell-based; conditions: 48 hours post-infection; 0.22 ug ACV or two implants per well
Procedure: A six-well culture plate was prepared with 4 mL of Dulbecco's modified Eagles' medium (DMEM) (Invitrogen) supplemented with 10% fetal bovine serum and 1% penicillin-streptomycin-Amphotericin B solution (Mediatech) per well. […] The plate was incubated for two days at 37° C. and 5% CO2. Vero cells (ATCC CCL-81) were then added to each well and allowed to grow for another 48 hours until almost confluent. HSV-1 KOS (9.0×10^3 pfu) (ATCC VR-1493) was added to one of each of the paired wells, and 24 and 48 hours later the cells were photographed with a Nikon D1 2.6 megapixel digital camera, set in black and white mode, attached to an Olympus CK-40 microscope. The resulting digital images were compiled for presentation with Adobe Photoshop.
All mock-infected Vero cells remained healthy 48 hours after infection (FIGS. 8A-8C).

HSV-1 = conditions: cited from earlier work
[2] = cited from earlier work
[3] = target: host eukaryotic DNA polymerase; conditions: cited from earlier work

## Nc1nc2c(ncn2COCCO)c(=O)[nH]1 [ACV, acyclovir]
[1]
  cytopathic effect (CPE) in HSV-1-infected Vero cells: Moderate CPE (cell rounding)
  plaque formation in HSV-1-infected Vero cells: no plaque formation
HSV-1
  50% inhibitory dose against HSV-1: about 0.03 ug/mL

## CC(C)[C@H](N)C(=O)OCCOCn1cnc2c(=O)[nH]c(N)nc21 [valacyclovir]
[2]
  bioavailability, of the oral dose consumed: about 50%

## Nc1nc2c(ncn2COCCOP(=O)(O)OP(=O)(O)OP(=O)(O)O)c(=O)[nH]1 [ACV-triphosphate, ACV triphosphate]
[3]
  Ki: 960 ± 80 nM
